# From patent publication US20040197299A1, “Topically applicable cosmetic/dermatological compositions comprising hydrolase polypeptides having amidase activity and/or products modulating the activity thereof” (SOCIETE L'OREAL, S.A., priority 2003, published 2004)
# How the values were obtained:
# corneodesmosin = assay: Corneodesmosin signal after incubation of SC acetone powder with semi-purified AGA (immunoblot); type: biochemical; details: 8 hours, 37° C., pH 8
# Description: An SC acetone powder obtained by the “varnish stripping” technique as described by Mehul B. et al. (2000, The Journal of Biological Chemistry, Vol. 275, No. 17, 12841-12847) is incubated with a semi-purified AGA extract in the presence or otherwise of 5 mM L-asparagine at the rate of 100 μl of incubation solution per mg of acetone powder. The incubations are carried out in 0.1 M Tris-HCl buffer, pH 8, at 37° C., for 8 hours, with stirring. A test t0 is made as well as a control: buffer alone.
# The soluble proteins of each sample are then extracted under denaturing conditions (SDS, DTT and boiling). The total proteins are assayed according to the Bradford method and the concentrations are aligned at 0.6 mg/ml in Laemmli extraction buffer.
# An SDS-PAGE separation is then carried out, followed by a transfer onto PVDF membrane marketed by Millipore. The corneodesmosin is immunodetected with the monoclonal antibody G3619 described in Serre G. et al. (1991, J. Invest. Dermatol., 97, 1061-1072) diluted 1/12500.
# Each blot is then stained with a 0.03% amido black solution (SIGMA) in order to normalize the quantity of corneodesmosin relative to a quantification of the keratins.
# FIG. 2 presents the variation of the corneodesmosin signal after incubation of various quantities of semi-purified AGA with an acetone powder for 8 hours.
# [1] = molecular target: T1, AGA activity purified from the SC (aspartylglucosaminidase, EC 3.5.1.26) (Homo sapiens, UniProt P20933); assay: AGA activity assay with the fluorescent substrate Asp-AMC; type: biochemical; details: L-asparagine used at 1.25 mM
# T1 construct: led to the identification of the A chain of AGA (band of 24 kDa); and of the B chain of AGA (bands of 16 and 15 kDa); from tissue; host or cells: human stratum corneum, scraped from the anterior surface of the leg
# T1 sequence (P20933 24-205 limits assumed): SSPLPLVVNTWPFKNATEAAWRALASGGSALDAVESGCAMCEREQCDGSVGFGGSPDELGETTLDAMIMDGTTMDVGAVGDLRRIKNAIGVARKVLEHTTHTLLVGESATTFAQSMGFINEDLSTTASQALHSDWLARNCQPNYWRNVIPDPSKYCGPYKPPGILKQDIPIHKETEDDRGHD
# T1 sequence (P20933 206-346 limits assumed): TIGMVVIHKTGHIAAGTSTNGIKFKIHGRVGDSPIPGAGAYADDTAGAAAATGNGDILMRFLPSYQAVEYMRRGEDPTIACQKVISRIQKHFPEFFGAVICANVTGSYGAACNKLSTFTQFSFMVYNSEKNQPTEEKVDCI
# Description: The purification of AGA is monitored by assaying of activity with the fluorescent substrate L-aspartic acid beta(7-amido-4-methylcoumarin) (Asp-AMC) according to the method described by Mononen I. T. et al., 1993, Analytical Biochemistry, 208, 372-374. 10 μl of each eluted fraction are incubated for 24 h at 37° C. with 100 μl of Asp-AMC substrate diluted to 1 mM in 0.1 M Tris-HCl buffer, pH 8. The fluorescence is quantified on a Biolumin reader (excitation/emission: 340/450 nm).
# The AGA activity was assayed with the substrate Asp-AMC in various SC extracts.
Molecule,"inhibition of the AGA-induced decrease in corneodesmosin (corneodesmosin; L-asparagine at 5 mM, 10 μl of AGA condition)",inhibition of the AGA activity purified from the SC [1],variation of the quantity of corneodesmosin (prodesquamating effect) (corneodesmosin; SC acetone powder incubated with increasing quantities of semi-purified AGA)
NC(=O)C[C@H](N)C(=O)O [L-asparagine],inhibits this effect,inhibit the AGA activity,
aspartylglucosaminidase AGA (EC 3.5.1.26),,,decrease in the quantity of corneodesmosin
